For data set [1], the target named is T1, human V2 receptor (Homo sapiens, UniProt P30518).
T1 construct: expressed in transfected cells; host or cells: CHO cells
Nature of the data set: V2R agonist activity, cAMP production by HTRF, stably transfected CHO cells. The data set is classed as cell-based. To be noted: HTRF detection, read-out: hV2R, EC50. How it is done: V2R: Evaluation of the agonist activity of compounds at the human V2 receptor expressed in stably transfected CHO cells was conducted by measuring their effects on cAMP production using the HTRF detection method ([Cotte et al., 1998]).

The nature of data set [2]: Dose escalation: kaolin intake (pica, nausea/visceral malaise). The data set is classed as in vivo, male DIO Sprague Dawley rats. The procedure: (§1) Sprague Dawley rats (male, ∼4 weeks of age, 51–75 g body weight) were switched from standard chow to a high fat diet (Research Diets, Diet # D12492, 60, 20, 20%kcal from fat, protein, and carbohydrate, respectively, 5.21 kcal/g; stored at −20°C). The rats were maintained on this diet for approximately 15 weeks prior to the start of experiments to develop a diet-induced overweight (DIO) model. Animals were individually housed on a 12 h/12 h light/dark cycle (lights on at 04:00 h) in a temperature (23°C) and humidity (mean 50%, SD 10%) controlled room. All body weight measurements were made just prior to the start of the dark cycle.
Sequential rounds of a 3-day baseline phase (vehicle treated), a 3-day treatment phase, and a washout phase (2–5 days as necessary) were tested. […] High fat diet was accessible to the rats from all but the last 6 h of the light cycle and water was provided ad libitum. This daily period of food restriction was used to prevent incidental feeding in the event animals were disturbed from their sleep by noise from surrounding rooms. To assess a potential pica response (nausea/visceral malaise) in animals, powdered kaolin (Sigma-Aldrich, K1512) was made available on drug treatment days with a restriction period similar to the high fat diet. Prior to the first experiment, rats were provided access to kaolin for 2 days so that they could familiarize themselves with it prior to start of testing. Food and kaolin intake were continuously recorded using AccuScan DietMax (currently OmniTech Electronics, Inc., Diet System) cages. The high fat diet was compressed in the food tray to form a solid block of food. This allows for more accurate meal size measurements by preventing the animals from removing entire pellets at time. All food and kaolin intake data were binned into 15-min intervals for analysis and the start of the 24-h food intake period aligned to the lights turning off in the animal room. Body weight was recorded, and treatment injections were administered just prior to the start of the dark cycle.

The nature of data set [3]: Toxicity / mortality. Type of data set: in vivo.
The nature of data set [4]: Long-term (28-day) drug intervention: body weight. Type of data set: in vivo, male DIO Sprague Dawley rats. To be noted: treatment days 9-28. How it is done:
as §1
(§2) Male DIO Sprague Dawley rats (n = 24) were generated as outlined above and were 644.5 g (50 g) at the start of drug treatment. The animals were divided into three treatment groups (n = 8 each) balanced for body weight, body weight gain during baseline, food intake, and Lee Index [body weight^(1/3)/snout to anus length (mm)] ([Lee, 1929]; [Simson and Gold, 1982]) as an indicator of adiposity (Figure 2). In a subset of the animals (n = 5 per group, balanced for prior mentioned criteria), Mini-Mitter transponders (PDT-4000 E-Mitter, Respironics Inc.) were implanted posterior to the left scapula at least 9 days prior to start of baseline measures to ensure sufficient recovery time. Body temperature and gross motor activity were continuously recorded via these transponders. […] High fat diet and water were provided ad libitum and intake was recorded with daily hopper and water bottle weighs at time of body weight assessment just prior to drug administration. Blood samples were taken at start of intervention by tail vein bleeding and via cardiac puncture under an isoflurane induced surgical plane of anesthesia at euthanasia. Animals were euthanized on treatment day 29, 4 h after receiving a dose of their assigned treatment, via decapitation under isoflurane anesthesia immediately following blood draw. Body composition was assessed on carcasses.
From treatment day 8 on the doses were maintained to assess long-term efficacy at a therapeutically meaningful dose.

The nature of data set [5]: Long-term: gross motor activity and body temperature (Mini-Mitter transponders). To be noted: 28-day study, n = 5 per group; first 12 days analysed. The data set is classed as in vivo, male DIO Sprague Dawley rats.
Excerpt: as §2
For comparisons of mean longitudinal changes in body temperature and activity, only the first 12 days of treatment, divided into three 4-day phases, were included in the analysis. These 4-day phases allowed for analyses to consider the ASK1476 dose titration.

The nature of data set [6]: Long-term: hormone and metabolic blood parameters. Type of data set: in vivo, male DIO Sprague Dawley rats.
Excerpt: as §2, with “Animals were euthanized on treatment day 29, 4 h after receiving a dose of their assigned treatment, via decapitation under isoflurane anesthesia immediately following blood draw.” left out
Commercially available enzyme-linked immunosorbent assays (ELISA) were used for quantitative assessment of leptin (MilliporeSigma, Burlington, MA) and insulin (MilliporeSigma, Burlington, MA); all with intra-assay CV < 4%. […]

For data set [7] the following is noted: ref Modi et al., 2016, cited from earlier work. The text has this:
This property allows for reduction of the free fraction of ASK1476 available for enzymatic degradation. The pharmacokinetics study protocol for ASK1476 in mice and rats was described before ([Modi et al., 2016]).

The conditions of data set [8]: sc and iv, rodents; ref Modi et al., 2016; cited from earlier work.

pEC50: −log10 of the molar value. Entries after “also recorded” stand apart in the source; their conditions may differ. Like-named read-outs stand apart in the source and are kept apart here. Positions of bridges follow the written chain, without caps; N, C: chain ends. Residues, ends and D or L forms follow the SMILES beside them. Groups on a side chain read outwards from the residue. *: point of attachment. PEG8 = NCCOCCOCCOCCOCCOCCOCCOCCOCCC(=O)O; Palmitoyl = CCCCCCCCCCCCCCCC(=O)*

A word on the pEC50: it is −log10 of the EC50, conventionally taken in molar units.

T1 sequence (P30518 whole entry): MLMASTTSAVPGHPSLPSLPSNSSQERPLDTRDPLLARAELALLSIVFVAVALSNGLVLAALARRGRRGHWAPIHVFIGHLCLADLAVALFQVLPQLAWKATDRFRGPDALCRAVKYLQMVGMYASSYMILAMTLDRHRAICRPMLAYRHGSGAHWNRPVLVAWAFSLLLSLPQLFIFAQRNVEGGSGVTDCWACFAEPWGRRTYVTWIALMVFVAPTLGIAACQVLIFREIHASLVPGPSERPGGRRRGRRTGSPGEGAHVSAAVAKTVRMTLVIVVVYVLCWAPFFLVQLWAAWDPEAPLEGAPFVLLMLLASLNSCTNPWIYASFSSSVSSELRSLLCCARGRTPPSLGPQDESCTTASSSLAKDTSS

`CCCCCCCCCCCCCCCC(=O)NCCOCCOCCOCCOCCOCCOCCOCCOCCC(=O)NCCCC[C@H](NC(=O)CNC(=O)[C@@H]1CSSC[C@H](N)C(=O)N[C@@H](Cc2ccc(O)cc2)C(=O)N[C@@H]([C@@H](C)CC)C(=O)N[C@@H](CCC(N)=O)C(=O)N[C@@H](CC(N)=O)C(=O)N1)C(=O)NCC(N)=O` [ASK1476] (H-CYIQNCGK([PEG8-Palmitoyl])G-NH2; disulfide 1-6): the pEC50 in data set [1] is 9.44. Besides, in data set [2] (ASK1476 6, 15, 30, 60, 120 and 300 nmol/kg), the “relationship between kaolin consumption and baseline normalized food intake” value is recorded as “no significant association”. In addition, the “visceral malaise signal (notably high kaolin intake in a few animals)” value in data set [2] (ASK1476 dosing spectrum) is recorded as “may result in visceral malaise in a subset of animals”. In data set [2] (ASK1476 ≥ 30 nmol/kg/d, several animals, not seen with OXT), the “kaolin intake of several animals at higher doses” value is greater than 4 g/day. Also, in data set [2] (increasing ASK1476 doses, not significant), the “kaolin intake, trend with dose” value is “increasing trend”. Moreover, the “kaolin intake at low doses” value in data set [2] (low doses, sc once daily) was “below 4 g/d”. Besides, in data set [2] (sc once daily, ASK1476 6-300 nmol/kg F(1.80, 12.59) = 2.26, p = 0.148, OXT 20-1200 nmol/kg F(1.51, 10.52) = 1.73, p = 0.223), the “kaolin intake, effect of treatment” value is on record as “no significant effect of treatment”. Also, the death entry in data set [3] (150 nmol/kg intraperitoneal, unpublished dosing experiment) was “death of a rat”. For the same compound, in data set [3] (300 nmol/kg daily sc, after third dose, cause of death not established), the death result is “one rat was found dead”. For the same compound, in data set [4], the “weight stability during final 20 days” value is given as “remained weight stable”. Besides, the “locomotor activity or body temperature” value in data set [5] is reported as “no effects were detected on locomotor activity or body temperature; also recorded: did not find any evidence”. Moreover, the “serum ALT, difference vs vehicle” value in data set [6] (ASK1476, 95% CI −2.1 to −13.2, p = 0.006) is on record as −7.6 U/L. Moreover, in data set [6] (after 28-day Tx, serum, n = 8, Mean ± SD, ASK1476 ** p < 0.01 vs vehicle, ANOVA p 0.009), the “ALT, post-treatment” value is 0.440.06** μmol/(sL). For the same compound, in data set [7] (iv, rats, compared to OXT), the “half-life vs OXT” value is “extended half-life”, the “plasma clearance vs OXT” value is “reduced plasma clearance” and the “steady-state volume of distribution vs OXT” value was “increased steady-state volume of distribution”. For the same compound, in data set [7] (sc, depot formulation), the “brain to plasma concentration ratio (distribution)” value is reported as “almost exclusive compartmentalization of the molecule to plasma”, the “concentrations in the central compartments” value is given as “only minimal concentrations detectable” and the plasma exposure result is “prolonged exposure in the plasma”. Besides, the “total maximal plasma concentration (Cmax)” value in data set [7] (sc, mice, at 2 h post-dose) is reported as “improved total maximal plasma concentration (Cmax)”. The half-life result in data set [7] (sc, mice) is reported as “extended half-life”. Further, in data set [8], the “half-life vs OXT” value was “increased half-life” and the “plasma protein binding vs OXT” value is “increased plasma protein binding”.

The values are drawn from publication PMC8502973 (Frontiers in Physiology, 2021).
